What was measured:
HCC2429 cells = assay: Proliferation / cell viability assay (Cell Titer Glo) on HCC2429; format: cell-based; details: FIG. 1; for IC50: 72 h incubation, ATP content by CTG; for effect on proliferation of HCC2429 cells, in words: dose response experiments
Experimental: Proliferation assays were performed as described below under materials and methods. […] (Cpd B1 and Ro-3306) were applied at concentrations between 30 and 0.0137 μM. After 72 h incubation with compounds ATP content/proliferation was determined employing CTG (Promega). Relative proliferation values (compared to vehicle control) were used to calculate IC50 values (Excel fit; algorithm #205). IC50s of the respective compound (Y-axis; logarithmic scale) on proliferation of various cell lines (X-axis) are depicted in black bars. White bars indicate that an IC50 could not be determined due to too low activity and therefore was higher than the highest applied concentration in the assays (30 μM). IC50s of compounds on CDK9 inhibitor sensitive cell line HCC2429 are presented in grey bars.
Cell lines were maintained in RPMI 1640 cell culture medium+glutamine (PAN Biotech GmbH, Aidenbach, Germany; order no. P04-22100; P04-05500) supplemented with 10% fetal calf serum “Gold” (PAA Laboratories GmbH, Pasching, Austria; order no. A15-151) and grown in a humidified atmosphere at 37° C., 5% CO2. As a first step, an optimal cell density for each cell line was determined to guarantee linearity. For viability assays with compounds, cells were then seeded at a density of 200 to 1000 per well in 25 μl in 384-well plates (Greiner Bio-One, Frickenhausen, Germany; order no. 781080). After overnight incubation at 37° C./5% CO2, 25 nl or 75 nl compounds were added to each sample well by using BIOMEK FX^P Laboratory Automation Workstation (Beckman Coulter, USA). Wells with cells and 0.1% or 0.3% DMSO in culture medium were used as positive controls, wells with cells and 10 μM staurosporine (Selleck Chemicals, Huston, USA) in culture medium were used as negative controls. Upon incubation with compounds for 72 h at 37° C./5% CO2 25 μl Cell Titer Glo reagent (Promega, Madison, USA, order no. G7573; 1:2 diluted with cell culture medium) was added to each well to determine cell viability. 384well-plates were placed for 2 min on an orbital microplate shaker and incubated for further 10 min at room temperature resulting in a stabilization of light signal. Luminescence was measured by Envision Plate Reader (Perkin Elmer, USA). IC50 values were calculated with the software Excel Fit (IDBS, Guildford, UK) from 3-fold dilution series comprising 8 concentrations in duplicates.

[1] = tested on: BrdNut mutated cell lines (HCC2429, TY-82, 690100, 143100); assay: Proliferation assay on Brd-4-Nut mutated versus wild type cell lines (FIG. 4); format: cell-based; details: mutated: HCC2429, TY-82, 690100, 143100, wild type: Hela, HCC366, H460, HCC1143, hPBMCs
Experimental: The proliferation results are presented as IC50 in μM. First, the anti-proliferative effect of CDK9 inhibitors is much more pronounced on BrdNut mutated cell lines (=sensitive cell lines).
Cell lines were maintained in RPMI 1640 cell culture medium+glutamine (PAN Biotech GmbH, Aidenbach, Germany; order no. P04-22100; P04-05500) supplemented with 10% fetal calf serum “Gold” (PAA Laboratories GmbH, Pasching, Austria; order no. A15-151) and grown in a humidified atmosphere at 37° C., 5% CO2. As a first step, an optimal cell density for each cell line was determined to guarantee linearity. For viability assays with compounds, cells were then seeded at a density of 200 to 1000 per well in 25 μl in 384-well plates (Greiner Bio-One, Frickenhausen, Germany; order no. 781080). After overnight incubation at 37° C./5% CO2, 25 nl or 75 nl compounds were added to each sample well by using BIOMEK FX^P Laboratory Automation Workstation (Beckman Coulter, USA). Wells with cells and 0.1% or 0.3% DMSO in culture medium were used as positive controls, wells with cells and 10 μM staurosporine (Selleck Chemicals, Huston, USA) in culture medium were used as negative controls. […] Luminescence was measured by Envision Plate Reader (Perkin Elmer, USA). […]

CDK9/CyclinT1 = target: T1, CDK9/CyclinT1 (Homo sapiens, UniProt P50750); assay: Lance Ultra KinaSelect Assay, CDK9; format: biochemical; details: FIG. 2
T1 construct: purchased Invitrogen
Excerpt: (§1) The principle behind this enzymatic assay is based upon the phosphorylation of the Ulight-Peptide Substrat. It is detected by using a specific EU-labeled anti-phospho peptide antibody. […] Binding of an inhibitor to the kinase prevents phosphorylation of the Ulight-MBP Substrat, resulting in a loss of FRET.
as §1
This compound predilution was then serial diluted 1:3 over 8 steps in DMSO and briefly spun down. Each compound solution was now diluted 1:20 in Enzymatic Buffer (HEPES: 50 mM, pH: 7.5; MgCl2: 10 mM; EGTA: 1 mM; DTT: 2 mM; Tween-20: 0.01%), mixed thoroughly and spun down.

CDK9/CycT = target: T2, CDK9/CycT (Homo sapiens, UniProt P50750); assay: Radiometric protein kinase assay (33PanQinase Activity Assay), kinase selectivity; format: biochemical; details: 23 different kinases, 10 μM compound versus DMSO control; FIG. 3
T2 construct: purchased ProQinase
Experimental: A radiometric protein kinase assay (33PanQinase® Activity Assay) was used for measuring the kinase activity of protein kinases employing exemplary CDK9 inhibitors to be used in the present invention (see FIG. 3). […] Activities of other kinases are not inhibited.
A similar experimental procedure is performed when the resulting activity within ^33PanQinase® assay is done. In advance buffers are prepared but in this case the pipetting sequence is first ATP solution diluted with assay buffer, DMSO or compound solution. The reaction (1 h at 30° C.) is started by addition of a substrate-kinase mix. During the incubation the kinase phosphorylates the substrate (different for each kinase). Due to the fact that the ATP solution contains ^33P-labelled ATP the substrate proteins are labeled with ^33P. The reaction is stopped by addition of excess H3PO4. If the reaction is performed in plates binding substrate proteins, said plates are washed to reduce unspecific signals (mainly not used ATP). […] Therefore, the incorporated radioactivity is detected by scintillation counting. Data is evaluated, processed and analyzed as described for the LANCE assays. […]
The reaction cocktails were incubated at 30° C. for 60 minutes. […] Incorporation of 33Pi (counting of “cpm”) was determined with a microplate scintillation counter (Microbeta, Wallac).

T1 sequence (P50750 whole entry): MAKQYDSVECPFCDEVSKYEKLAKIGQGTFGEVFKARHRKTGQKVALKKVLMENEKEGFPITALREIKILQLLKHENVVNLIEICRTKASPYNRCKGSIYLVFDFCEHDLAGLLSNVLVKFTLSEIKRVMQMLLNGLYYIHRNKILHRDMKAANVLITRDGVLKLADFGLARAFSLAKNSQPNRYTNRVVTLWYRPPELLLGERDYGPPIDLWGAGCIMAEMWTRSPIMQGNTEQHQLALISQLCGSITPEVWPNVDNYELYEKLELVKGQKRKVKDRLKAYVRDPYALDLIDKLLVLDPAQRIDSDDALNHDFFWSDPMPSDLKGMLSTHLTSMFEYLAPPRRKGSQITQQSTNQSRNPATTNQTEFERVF
T1 sequence (O60563 whole entry partner): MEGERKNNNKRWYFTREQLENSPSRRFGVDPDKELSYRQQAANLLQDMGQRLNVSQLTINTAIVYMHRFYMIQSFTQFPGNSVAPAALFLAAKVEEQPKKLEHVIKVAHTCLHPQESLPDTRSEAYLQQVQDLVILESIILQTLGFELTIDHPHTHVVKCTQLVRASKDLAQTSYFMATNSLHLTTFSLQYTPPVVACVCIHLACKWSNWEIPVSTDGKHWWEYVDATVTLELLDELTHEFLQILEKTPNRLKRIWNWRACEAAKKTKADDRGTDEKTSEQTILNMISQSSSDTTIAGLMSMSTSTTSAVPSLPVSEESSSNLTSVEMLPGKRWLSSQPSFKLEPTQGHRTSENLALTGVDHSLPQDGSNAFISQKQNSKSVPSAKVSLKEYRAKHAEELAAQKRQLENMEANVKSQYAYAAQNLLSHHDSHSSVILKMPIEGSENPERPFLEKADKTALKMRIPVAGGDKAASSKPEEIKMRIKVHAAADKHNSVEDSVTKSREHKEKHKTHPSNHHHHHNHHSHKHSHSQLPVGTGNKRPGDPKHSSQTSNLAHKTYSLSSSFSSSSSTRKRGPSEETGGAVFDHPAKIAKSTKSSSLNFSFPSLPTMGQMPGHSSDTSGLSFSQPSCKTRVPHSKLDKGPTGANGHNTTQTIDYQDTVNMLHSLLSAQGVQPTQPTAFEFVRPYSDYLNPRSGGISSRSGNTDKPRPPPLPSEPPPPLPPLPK
T2 sequence (P50750 whole entry): as the sequence (P50750 whole entry) above
T2 sequence (O60563 whole entry partner): as the sequence (O60563 whole entry partner) above

| SMILES | IC50 (HCC2429 cells) [µM] | effect on proliferation of HCC2429 cells, in words (HCC2429 cells) | proliferation inhibition in mutated, sensitive cell lines compared with wild type cell lines, in words [1] | CDK9 inhibition potency, in words (CDK9/CyclinT1) | residual kinase activities / kinase selectivity, in words (CDK9/CycT) | IC50 (HCC2429 cells; Homo sapiens, HCC2429) [µM] |
| --- | --- | --- | --- | --- | --- | --- |
| O=C1NC(=NCc2cccs2)S/C1=C\c1ccc2ncccc2c1 [Ro-3306] | > 10 | did not show comparable effects | – | – | – | – |
| COc1ccccc1-c1cc(Nc2cccc(CS(N)(=O)=O)c2)ncn1 [1073485-20-7P, 3-[[6-(2-methoxyphenyl)-4-pyrimidinyl]amino]-Benzenemethanesulfonamide] | – | – | much more potent in mutated, sensitive cell lines | relatively weak | – | – |
| COc1ccccc1-c1ncnc(Nc2cccc(CS(N)(=O)=O)c2)n1 [Cpd B1, 3-[(4-(2-Methoxyphenyl)-1,3,5-triazin-2-yl)amino]benzenemethanesulfonamide] | – | potently affected proliferation | – | – | inhibits only CDK9 with high potency | 0.151 |

Reference: US20140287454A1, “SUSCEPTIBILITY TO SELECTIVE CDK9 INHIBITORS” (MAX-PLANCK-GESELLSCHAFT ZUR FÖRDERUNG DER WISSENSCHAFTEN …, priority 2011, published 2014)
